Reference: US20210038569A1, “COMPOSITIONS AND METHODS FOR TREATING PIGMENTATION DISORDERS” (Timber Pharmaceuticals, Inc., priority 2018, published 2021)
“Also recorded” adds a separate entry of the source. Like-named read-outs stand apart in the source and are kept apart here.

Tests used:
[1] = tested on: normal human dermal fibroblasts (NHDFs) stimulated with TGF-β1; experiment: Apoptosis (Caspase-Glo 3/7) in TGF-β1 induced normal human dermal fibroblasts; format: cell-based; conditions: for Apoptosis: 48 hours, 50 ng/mL TGF-β1; for Apoptosis, result in words: after treatment, compared with vehicle control and between compounds
Protocol: For these assays cells were grown for 48 hours in the presence of vehicle control, sitaxentan, and bosentan. The appropriate assay reagents and measuring techniques were used as indicated herein. Normal human dermal fibroblast cells (LLCT FC0024 lot 03869_ fibroblast) were seeded to confluence in 96 well plates in 10% fetal bovine serum (FBS) Dulbecco's modified eagle medium (DMEM). The cells were washed to remove the FBS, and serum free media was added overnight (O/N). The cells were then stimulated with 50 ng/mL TGF-β1 and treated. For the apoptosis assay: 100 μl of Caspase-Glo® 3/7 Reagent (Promega, Cat #G6320), for the apoptosis assay, was added and briefly mixed. The plate was incubated for 30 minutes at room temperature prior to measurement of luminescence Data were analyzed using GraphPad Prism 7. Six to nine replicates were run for each sample.

[2] = tested on: normal human dermal fibroblasts (NHDFs) stimulated with TGF-β1; experiment: Cell viability in TGF-β1 induced normal human dermal fibroblasts; format: cell-based; conditions: for Cell Viability: 48 hours, 50 ng/mL TGF-β1
Protocol: For these assays cells were grown for 48 hours in the presence of vehicle control, sitaxentan, and bosentan. The appropriate assay reagents and measuring techniques were used as indicated herein. Normal human dermal fibroblast cells (LLCT FC0024 lot 03869_ fibroblast) were seeded to confluence in 96 well plates in 10% fetal bovine serum (FBS) Dulbecco's modified eagle medium (DMEM). The cells were washed to remove the FBS, and serum free media was added overnight (O/N). The cells were then stimulated with 50 ng/mL TGF-β1 and treated. For the cell viability assay: 20 μl of the Viability Reagent (Promega, Cat #G6320) containing both GF-AFC Substrate and bis-AAF-R110 Substrate, for measuring live cell viability, was added and briefly mixed. The plates for the different assays were then incubated for 30 minutes at 37° C. […] Data were analyzed using GraphPad Prism 7. Six to nine replicates were run for each sample.

[3] = tested on: primary normal human adult melanocytes; experiment: Melanin content in melanocytes; format: cell-based; conditions: for Melanin Content (absorbance at 400 nm): 24 hours
Protocol: (§1) The effect of sitaxentan on human melanocytes was measured. For these assays cells were grown for 24 hours in the presence of vehicle control, sitaxentan, and bosentan. The appropriate assay reagents and measuring techniques were used as indicated herein. Melanocytes, from either Caucasian or African American donors, were grown to confluence in 6-well tissue culture plates using LLCT DermaLife Ma complete medium and treated with compounds for 24 hours. Treated cells were removed from the plate with 0.25% trypsin for 10 minutes and then centrifuged at 0.4 g for 5 minutes. The resulting cell pellet was resuspended in 50 μL of 1M NaOH/10% DMSO solution. The resultant suspension was vortexed for 30 seconds. The suspension was then baked in a drying oven at 80° C. for 1 hour. The suspension was vortexed again for 30 seconds and then transferred to a black half-area 96-well plate and read in a UV/VIS spectrophotometer at 400 nm. Data were analyzed using GraphPad Prism 7.

[4] = tested on: primary normal human adult melanocytes; experiment: Melanin content in melanocytes; format: cell-based; conditions: for Melanin Content (absorbance at 400 nm): 24 hours; remark: listed apart in the source
Protocol: as §1

[5] = tested on: normal human dermal fibroblasts (NHDFs) stimulated with TGF-β1; experiment: Cell cytotoxicity in TGF-β1 induced normal human dermal fibroblasts; format: cell-based; conditions: for Cell Cytotoxicity: 48 hours, 50 ng/mL TGF-β1; for Cytotoxicity, result in words: compared with vehicle control and between compounds
Protocol: The effect of sitaxentan on cell viability, cell cytotoxicity, and apoptosis was measured in an assay using normal human dermal fibroblasts induced with TGF-β1 into a profibrotic phenotype. For these assays cells were grown for 48 hours in the presence of vehicle control, sitaxentan, and bosentan. The appropriate assay reagents and measuring techniques were used as indicated herein.
normal human dermal fibroblast cells (LLCT FC0024 lot 03869_ fibroblast) were seeded to confluence in 96 well plates in 10% fetal bovine serum (FBS) Dulbecco's modified eagle medium (DMEM).
The cells were washed to remove the FBS, and serum free media was added overnight (O/N).
The cells were then stimulated with 50 ng/mL TGF-β1 and treated.
For the cell cytotoxicity assay:
20 μl of the Cytotoxicity Reagent (Promega, Cat #G6320) containing both GF-AFC Substrate and bis-AAF-R110 Substrate, for measuring dead cells (cytotoxicity), was added and briefly mixed.
The plates for the different assays were then incubated for 30 minutes at 37° C.
Fluorescence was measured at: 400Ex/505Em (Viability) and 485Ex/520Em (Cytotoxicity)
Data were analyzed using GraphPad Prism 7.
Six to nine replicates were run for each sample.

[6] = cited from earlier work
[7] = target: T1, endothelin-A (ET-A) receptor (Homo sapiens, UniProt P25101); conditions: cited from earlier work
T1 sequence (P25101 21-427): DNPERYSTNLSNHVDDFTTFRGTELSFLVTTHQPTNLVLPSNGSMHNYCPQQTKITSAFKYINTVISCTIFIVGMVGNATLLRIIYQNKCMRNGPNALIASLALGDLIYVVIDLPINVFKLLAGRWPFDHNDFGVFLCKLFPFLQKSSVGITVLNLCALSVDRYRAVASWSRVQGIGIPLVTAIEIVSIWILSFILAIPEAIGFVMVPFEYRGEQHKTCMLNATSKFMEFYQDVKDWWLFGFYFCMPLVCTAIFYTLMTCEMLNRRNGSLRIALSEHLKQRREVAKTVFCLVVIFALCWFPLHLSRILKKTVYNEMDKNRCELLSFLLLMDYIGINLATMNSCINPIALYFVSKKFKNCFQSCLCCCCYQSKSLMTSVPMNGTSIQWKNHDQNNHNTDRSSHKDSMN

[8] = in vivo; cited from earlier work

| SMILES | Apoptosis ([1]; 1 μM) [RLUs] | Apoptosis ([1]; 3 μM) [RLUs] | Apoptosis ([1]; 10 μM) [RLUs] | Apoptosis ([1]; 30 μM) [RLUs] | Apoptosis ([1]; 100 μM) [RLUs] | Apoptosis, result in words [1] | Cell Viability ([2]; 1 μM) [RFUs] | Cell Viability ([2]; 3 μM) [RFUs] | Cell Viability ([2]; 10 μM) [RFUs] | Cell Viability ([2]; 30 μM) [RFUs] | Cell Viability ([2]; 100 μM) [RFUs] | Effect on melanin content, result in words [3] | Melanin Content (absorbance at 400 nm) ([3]; 30 μM) | Melanin Content (absorbance at 400 nm) ([3]; 100 μM) | Effect on melanin content, result in words [4] | Melanin Content (absorbance at 400 nm) ([4]; 30 μM) | Melanin Content (absorbance at 400 nm) ([4]; 100 μM) | Cell Cytotoxicity ([5]; 1 μM) [RFUs] | Cell Cytotoxicity ([5]; 3 μM) [RFUs] | Cell Cytotoxicity ([5]; 10 μM) [RFUs] | further results |
| --- | --- | --- | --- | --- | --- | --- | --- | --- | --- | --- | --- | --- | --- | --- | --- | --- | --- | --- | --- | --- | --- |
| COc1ccccc1Oc1c(NS(=O)(=O)c2ccc(C(C)(C)C)cc2)nc(-c2ncccn2)nc1OCCO [bosentan] | 39366.8 | 38639.8 | 38586.7 | 42825.2 | 43330.7 | elevated | 5406.8 | 5548.5 | 5521.2 | 5537.0 | 5584.3 | no effect on melanin content | 0.511 | 0.497 | no effect on melanin content | 0.633 | 0.703 | 4256.9 | 3954.2 | 3764.0 | Cell Cytotoxicity ([5]; 30 μM): 4607.5 RFUs; Cell Cytotoxicity ([5]; 100 μM): 3929.0 RFUs; Cytotoxicity, result in words [5]: neither bosentan nor sitaxentan was significantly more cytotoxic than the vehicle control; also recorded: significantly more cytotoxic than sitaxentan |
| Cc1cc2c(cc1CC(=O)c1sccc1S(=O)(=O)Nc1onc(C)c1Cl)OCO2 [sitaxentan, N-(4-Chloro-3-methyl-5-isoxazolyl)-2-[(2-methyl-4,5-methylenedioxyphenyl)-acetyl]thiophene-3-sulfonamide] | 37593.4 | 39162.8 | 39512.0 | 46053.5 | 51050.2 | elevated; also recorded: significantly more potent effect than bosentan | 5678.3 | 5639.0 | 5600.5 | 5250.8 | 5171.0 | superior to bosentan in reducing the melanin content; also recorded: significantly more effective than a vehicle control at reducing melanin content; also recorded: significantly decreased melanin content | 0.471 | 0.46 | superior to bosentan in reducing the melanin content; also recorded: significantly more effective than a vehicle control at reducing melanin content; also recorded: significantly decreased melanin content | 0.579 | 0.544 | 4643.9 | 5058.3 | 4741.7 | Toxicity (cell viability), result in words ([2]; concentrations up to 100 μM): no significant toxicity was observed; Protein binding [6]: > 99%; Cell Cytotoxicity ([5]; 30 μM): 3837.5 RFUs; Cell Cytotoxicity ([5]; 100 μM): 2911.3 RFUs; Cytotoxicity, result in words [5]: neither bosentan nor sitaxentan was significantly more cytotoxic than the vehicle control; Cytotoxicity, result in words ([5]; listed as sitaxsentan): significantly less cytotoxic to human skin cells than bosentan; Selectivity for ET-A compared to ET-B (factor) [7]: 6000; Metabolism [8]: hepatic (CYP2C9- and CYP3A4-mediated) |
